Experiments:
human DGKζ = biological target: T1, human DGKζ (Homo sapiens, UniProt Q13574); assay: In vitro DGK inhibition assay, DGKζ liposome (LIPGLO) assay; assay type: biochemical; settings: read-out: Enzyme Inhibition DGKzeta IC50
T1 construct: TVMV protease cleavage site (C); Hexa-His (C); made in house; host or cells: Sf9 insect cells (baculovirus)
Experimental: (§1) The DGKα and DGKζ reactions were performed using either extruded liposome (DGKα and DGKζ LIPGLO assays) or detergent/lipid micelle substrate (DGKα and DGKζ assays). The reactions were carried out in 50 mM MOPS pH 7.5, 100 mM NaCl, 10 mM MgCl2, 1 μM CaCl2, and 1 mM DTT (assay buffer). The reactions using a detergent/lipid micelle substrate also contained 50 mM octyl B-D-glucopyranoside. The lipid substrate concentrations were 11 mM PS and 1 mM DAG for the detergent/lipid micelle reactions. The lipid substrate concentrations were 2 mM PS, 0.25 mM DAG, and 2.75 mM PC for the extruded liposome reactions (5 mM total lipid). The reactions were carried out in 150 μM ATP The enzyme concentrations for the DGKα and DGKζ were 5 nM
(§2) The compound inhibition studies were carried out as follows: 25 nL (ADPGLO assay) or 50 nL (LIPGLO assay) droplets of each test compound (top concentration 10 mM with 11 point, 3-fold dilution series for each compound) solubilized in DMSO were transferred to wells of a white 1536 well plate (Corning 3725). A 5 mL enzyme/lipid substrate solution at 2× final reaction concentration was prepared by combining 2.5 mL 4× enzyme solution (20 nM DGKα, or DGKζ (prepared as described below) in assay buffer) and 2.5 mL of either 4× liposome or 4× detergent/lipid micelle solution (compositions described below) and incubated at room temperature for 10 minutes. Next, 1 μL 2× enzyme/lipid substrate solution was added to wells containing the test compound and reactions were initiated with the addition of 1 μL 300 uM ATP. The reactions were allowed to proceed for 2 hr (ADPGLO assay) or 1 hr (LIPGLO assay), after which 2 μL Glo Reagent (Promega V9101) was added and incubated for 40 minutes. Next, 4 μL Kinase Detection Reagent was added and incubated for 30 minutes. Luminescence was recorded using an EnVision microplate reader. […] The compounds were evaluated at 11 concentrations to determine IC50.
(§3) The lipid composition was 5 mol % DAG (Avanti 8008110), 40 mol % PS (Avanti 840035P), and 55 mol % PC (Avanti 850457) at a total lipid concentration of 7-8 mg/mL for the liposome solution. The PC, DAG, and PS were dissolved in chloroform, combined, and dried in vacuo to a thin film. The lipids were hydrated to 20 mM in 50 mM MOPS pH 7.5, 100 mM NaCl, 5 mM MgCl2, and were freeze-thawed five times. The lipid suspension was extruded through a 100 nm polycarbonate filter 10-12 times. […] The liposome preparation was stored at 4° C. for as long as four weeks.
as §3, with “15.2” for “7-8”, “the 4×” for “the”, “eleven” for “10-12”
(§4) Human DGK-alpha-TVMV-His-pFBgate and human DGK-zeta-transcript variant-2-TVMV-His-pFBgate baculovirus samples were generated using the Bac-to-Bac baculovirus expression system (Invitrogen) according to the manufacturer's protocol. […] Baculovirus amplification was achieved using infected Sf9 cells at 1:1500 virus/cell ratios, and grown for 65 hours at 27° C. post-transfection.
(§5) The expression scale up for each protein was carried out in the Cellbag 50L WAVE-Bioreactor System 20/50 from GE Healthcare Bioscience. 12 L of 2×10^6 cells/mL Sf9 cells (Expression System, Davis, CA) grown in ESF921 insect medium (Expression System) were infected with virus stock at 1:200 virus/cell ratios, and grown for 66-68 hours at 27° C. post-infection.

human DGKα = biological target: T2, human DGKα (Homo sapiens, UniProt P23743); assay: In vitro DGK inhibition assay, DGKα liposome (LIPGLO) assay; assay type: biochemical; settings: read-out: Enzyme Inhibition DGKalpha IC50
T2 construct: TVMV protease cleavage site (C); Hexa-His (C); made in house; host or cells: Sf9 insect cells (baculovirus)
T2 sequence (P23743 with tags, fused parts or gaps): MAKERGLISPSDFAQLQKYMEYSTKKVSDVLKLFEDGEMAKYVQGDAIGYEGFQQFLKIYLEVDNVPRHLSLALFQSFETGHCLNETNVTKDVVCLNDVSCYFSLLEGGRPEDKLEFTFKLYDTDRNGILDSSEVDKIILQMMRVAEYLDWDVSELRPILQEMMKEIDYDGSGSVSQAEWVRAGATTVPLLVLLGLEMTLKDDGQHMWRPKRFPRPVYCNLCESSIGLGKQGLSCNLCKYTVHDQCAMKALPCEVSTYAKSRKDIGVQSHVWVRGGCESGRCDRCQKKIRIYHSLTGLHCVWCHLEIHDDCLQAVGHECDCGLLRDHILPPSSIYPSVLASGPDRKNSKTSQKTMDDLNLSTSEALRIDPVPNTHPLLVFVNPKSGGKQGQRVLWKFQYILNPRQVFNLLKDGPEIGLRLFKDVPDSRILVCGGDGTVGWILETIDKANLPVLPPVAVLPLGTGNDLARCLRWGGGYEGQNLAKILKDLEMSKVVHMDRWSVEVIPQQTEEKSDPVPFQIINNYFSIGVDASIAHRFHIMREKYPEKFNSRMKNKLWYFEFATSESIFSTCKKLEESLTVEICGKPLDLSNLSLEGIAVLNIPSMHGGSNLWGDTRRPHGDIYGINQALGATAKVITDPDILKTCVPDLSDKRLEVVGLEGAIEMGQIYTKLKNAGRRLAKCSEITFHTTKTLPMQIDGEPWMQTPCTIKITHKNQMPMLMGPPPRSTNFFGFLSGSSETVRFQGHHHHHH
Experimental: as §1, §2, §3
as §3, with “15.2” for “7-8”, “the 4×” for “the”, “eleven” for “10-12”
as §4, §5

T1 sequence (Q13574 with tags, fused parts or gaps isoform Q13574-4): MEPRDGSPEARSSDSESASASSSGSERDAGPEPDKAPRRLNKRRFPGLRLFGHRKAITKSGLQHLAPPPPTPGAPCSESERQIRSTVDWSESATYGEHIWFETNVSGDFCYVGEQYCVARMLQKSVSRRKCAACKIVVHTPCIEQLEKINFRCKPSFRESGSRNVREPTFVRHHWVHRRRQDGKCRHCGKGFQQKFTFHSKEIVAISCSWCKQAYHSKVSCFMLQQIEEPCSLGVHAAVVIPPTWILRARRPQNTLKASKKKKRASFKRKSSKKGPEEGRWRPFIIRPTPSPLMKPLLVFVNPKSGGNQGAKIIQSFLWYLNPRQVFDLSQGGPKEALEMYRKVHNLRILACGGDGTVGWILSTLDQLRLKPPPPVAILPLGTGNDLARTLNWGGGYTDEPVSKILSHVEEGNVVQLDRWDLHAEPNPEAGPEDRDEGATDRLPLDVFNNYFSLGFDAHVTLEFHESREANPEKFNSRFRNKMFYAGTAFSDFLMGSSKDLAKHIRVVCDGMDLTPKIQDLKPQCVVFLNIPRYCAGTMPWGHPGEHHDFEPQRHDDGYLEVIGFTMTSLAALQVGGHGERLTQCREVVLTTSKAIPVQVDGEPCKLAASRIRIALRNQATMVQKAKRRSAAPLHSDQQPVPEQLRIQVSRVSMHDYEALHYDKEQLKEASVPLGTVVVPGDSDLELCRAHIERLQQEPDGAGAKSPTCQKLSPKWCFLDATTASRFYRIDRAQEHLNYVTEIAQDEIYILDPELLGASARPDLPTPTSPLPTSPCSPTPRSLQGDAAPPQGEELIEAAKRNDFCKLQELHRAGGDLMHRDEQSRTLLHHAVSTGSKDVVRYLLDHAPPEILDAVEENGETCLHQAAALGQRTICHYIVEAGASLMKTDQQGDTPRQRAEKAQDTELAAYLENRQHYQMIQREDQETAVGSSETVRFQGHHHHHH

Row | SMILES | IC50 (human DGKζ) | IC50 (human DGKα)
1 | COc1ccc(-c2ccc(N(CC3CC3)c3cc(=O)n(C)c4ccc(C#N)nc34)cc2)cc1 [Example 73, 8-((cyclopropylmethyl)(4′-methoxy-[1,1′-biphenyl]-4-yl)amino)-5-methyl-6-oxo-5,6-dihydro-1,5-naphthyridine-2-carbonitrile] | 2 µM | 5.3 µM
2 | Cc1ccccc1-c1ccc(N(CC2CC2)c2cc(=O)n(C)c3ccc(C#N)nc23)cc1 [Example 75, 8-((cyclopropylmethyl)(2′-methyl-[1,1′-biphenyl]-4-yl)amino)-5-methyl-6-oxo-5,6-dihydro-1,5-naphthyridine-2-carbonitrile] | 0.88 µM | 3.3 µM
3 | Cn1c(=O)cc(N(CC2CC2)c2ccc(-c3ccccc3O)cc2)c2nc(C#N)ccc21 [Example 80, 8-((cyclopropylmethyl)(2′-hydroxy-[1,1′-biphenyl]-4-yl)amino)-5-methyl-6-oxo-5,6-dihydro-1,5-naphthyridine-2-carbonitrile] | 1.3 µM | 6.3 µM
4 | CN(C)C(=O)c1ccc(-c2ccc(N(CC3CC3)c3cc(=O)n(C)c4ccc(C#N)nc34)cc2)cc1 [Example 82, 4′-((6-cyano-1-methyl-2-oxo-1,2-dihydro-1,5-naphthyridin-4-yl) (cyclopropylmethyl)amino)-N,N-dimethyl-[1,1′-biphenyl]-4-carboxamide] | 2 µM | 3.8 µM
5 | Cn1c(=O)cc(N(CC2CC2)c2ccc(-c3cccc(C(N)=O)c3)cc2)c2nc(C#N)ccc21 [Example 84, 4′-((6-cyano-1-methyl-2-oxo-1,2-dihydro-1,5-naphthyridin-4-yl)(cyclopropylmethyl)amino)-[1,1′-biphenyl]-3-carboxamide] | 7.6 µM | 18 µM
6 | Cn1c(=O)cc(N(CC2CC2)c2ccc(-c3cccc(CNS(C)(=O)=O)c3)cc2)c2nc(C#N)ccc21 [Example 85, N-((4′-((6-cyano-1-methyl-2-oxo-1,2-dihydro-1,5-naphthyridin-4-yl) (cyclopropylmethyl)amino)-[1,1′-biphenyl]-3-yl)methyl)methanesulfonamide] | 4 µM | 5.6 µM

More lines, now with the values ahead:

Row | IC50 (human DGKζ) | IC50 (human DGKα) | SMILES
7 | 15 µM | 0.14 µM | Cn1c(=O)cc(N(CC2CC2)c2cccc(-c3ccc(Cl)cc3)c2)c2nc(C#N)ccc21 [Example 71, 8-((4′-chloro-[1,1′-biphenyl]-3-yl)(cyclopropylmethyl)amino)-5-methyl-6-oxo-5,6-dihydro-1,5-naphthyridine-2-carbonitrile]
8 | 1.5 µM | 6.2 µM | Cc1cccc(-c2ccc(N(CC3CC3)c3cc(=O)n(C)c4ccc(C#N)nc34)cc2)c1 [Example 74, 8-((cyclopropylmethyl)(3′-methyl-[1,1′-biphenyl]-4-yl)amino)-5-methyl-6-oxo-5,6-dihydro-1,5-naphthyridine-2-carbonitrile]
9 | 2.1 µM | 6.2 µM | Cn1c(=O)cc(N(CC2CC2)c2ccc(-c3cccc(Cl)c3)cc2)c2nc(C#N)ccc21 [Example 76, 8-((3′-chloro-[1,1′-biphenyl]-4-yl)(cyclopropylmethyl)amino)-5-methyl-6-oxo-5,6-dihydro-1,5-naphthyridine-2-carbonitrile]
10 | 4 µM | 9.5 µM | COc1cccc(-c2ccc(N(CC3CC3)c3cc(=O)n(C)c4ccc(C#N)nc34)cc2)c1 [Example 77, 8-((cyclopropylmethyl)(3′-methoxy-[1,1′-biphenyl]-4-yl)amino)-5-methyl-6-oxo-5,6-dihydro-1,5-naphthyridine-2-carbonitrile]
11 | 3.7 µM | 3.8 µM | Cn1c(=O)cc(N(CC2CC2)c2ccc(-c3cccc(O)c3)cc2)c2nc(C#N)ccc21 [Example 81, 8-((cyclopropylmethyl)(3′-hydroxy-[1,1′-biphenyl]-4-yl)amino)-5-methyl-6-oxo-5,6-dihydro-1,5-naphthyridine-2-carbonitrile]

— US20260049076A1, “Tertiary Amine Substituted Bicyclic Compounds Useful as T Cell Activators” (BRISTOL-MYERS SQUIBB COMPANY, priority 2022, published 2026)
